# Source: patent US20060069132A1, “Azolecarboxamide herbicides” (priority 2004, published 2006)
# Key:
# giant foxtail = assay: Test A pre-/postemergence herbicide test; assay type: in vivo, Setaria faberi
# Summary of the method: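 Seeds sown in sandy loam received a preemergence directed soil spray of compound in non-phytotoxic solvent with surfactant; postemergence plants (2–10 cm, one- to two-leaf stage) were sprayed to runoff at the same time. After ~10 days in greenhouse, injury was rated visually versus untreated controls (0 = no effect, 100 = complete control).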
# morningglory = assay: Test C pre-/postemergence herbicide test; assay type: in vivo, Ipomoea coccinea; set-up: key to Plant response rating, Morningglory: 0 = no effect, 100 = complete control; details: for Plant response rating (0 = no effect, 100 = complete control), Morningglory / Plant response rating, Morningglory: preemergence; for Morningglory plant response rating: Preemergence, scale 0 to 100, 0 no effect, 100 complete control
# Summary of the method: (§1)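 Seeds were planted and sprayed preemergence with test chemicals in a non-phytotoxic solvent mixture containing surfactant; postemergence treatments went onto plants 2 to 18 cm tall (1- to 4-leaf stage). After 12 to 14 days in a greenhouse, injury was rated visually against untreated controls on a 0–100 scale.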
# common ragweed = assay: Test C pre-/postemergence herbicide test; assay type: in vivo, Ambrosia elatior; set-up: key to Plant response rating, Ragweed: 0 = no effect, 100 = complete control; details: for Plant response rating (0 = no effect, 100 = complete control), Ragweed / Plant response rating, Ragweed: preemergence; for Ragweed plant response rating: Preemergence, scale 0 to 100, 0 no effect, 100 complete control
# Summary of the method: as §1
# dallisgrass = assay: Test E pre-/postemergence herbicide test; assay type: in vivo, Paspalum dilatatum
# From the text: (§2) Seeds of plant species selected from bipinnate beggarticks (Bidens bipinnata L.), hairy beggarticks (Bidens radiata Thuill.), bermudagrass (Cynodon dactylon (L.) Pers.), Surinam grass (Urochloa decumbens (Staph) R. D. Webster, previously named Brachiaria decumbens Stapf), large crabgrass (Digitaria sanguinalis (L.) Scop.), green foxtail (Setaria viridis (L.) P. Beauv.), goosegrass (Eleusine indica (L.) Gaertn.), johnsongrass (Sorghum halepense (L.) Pers.), kochia (Kochia scoparia (L.) Schrad.), pitted morningglory (Ipomoea lacunosa L.), purple nutsedge (Cyperus rotundus L.), common ragweed (Ambrosia elatior L.), mustard (Brassica nigra (L.) W. D. J. Koch), guineagrass (Panicum maximum Jacq.), dallisgrass (Paspalum dilatatum Poir.), barnyardgrass (Echinochloa crus-galli (L). P. Beauv.), southern sandbur (Cenchrus echinatus L.), common sowthistle (Sonchus oleraceous L.), prickly sida (Sida spinosa L.), Italian ryegrass (Lolium multiflorum Lam.), common purslane (Portulaca oleracea L.), broadleaf signalgrass (Brachiaria platyphylla (Griseb.) Nash), common groundsel (Senecio vulgaris L.), common chickweed (Stellaria media (L.) Vill/Cyr.), tropical spiderwort (Commelina benghalensis L.), annual bluegrass (Poa annua L.), downy bromegrass (Bromus tectorum L.), itchgrass (Rottboellia cochinchinensis (L.) L.f.), quackgrass (Elytrigia repens (L.) Nevski), Canada horseweed (Erigeron Canadensis L.), field bindweed (Convolvulus arvensis L.), spotted spurge (Euphorbia maculata L.), common mallow (Malva sylvestris (=s silvestris) L.), and Russian thistle (Salsola kali L. ssp. Ruthenica (Iljin) Soo) were planted and treated preemergence with test chemicals formulated in a non-phytotoxic solvent mixture which included a surfactant.
# (§3) At the same time, plants selected from these weed species were treated with postemergence applications of some of the test chemicals formulated in the same manner. Plants ranged in height from 2 to 18 cm (1- to 4-leaf stage) for postemergence treatments. Treated plants and controls were maintained in a greenhouse for 12 to 14 days, after which time all species were compared to controls and visually evaluated. Plant response ratings, summarized in Table E, are based on a scale of 0 to 100 where 0 is no effect and 100 is complete control. A dash (-) response means no test result.
# barnyardgrass = assay: Test E pre-/postemergence herbicide test; assay type: in vivo, Echinochloa crus-galli
# From the text: as §2, §3
# [1] = Postemergence, 500 g ai/ha, 0 to 100 scale, 0 no effect, 100 complete control
# [2] = Postemergence, 2000 g ai/ha, 0 to 100 scale, 0 no effect, 100 complete control
# [3] = Preemergence, 500 g ai/ha, visual rating, 0 to 100 scale (0 no effect, 100 complete control)
# [4] = Preemergence, 2000 g ai/ha, 0 to 100 scale, 0 no effect, 100 complete control
# [5] = 125 g ai/ha, scale 0 (no effect) to 100 (complete control), visual, 12 to 14 days
# [6] = Postemergence, 500 g ai/ha, scale 0 to 100
# [7] = Postemergence, 250 g ai/ha, scale 0 to 100
# [8] = Preemergence, 62 g ai/ha, scale 0 to 100
# [9] = Preemergence, 125 g ai/ha, scale 0 to 100
# [10] = Preemergence, 250 g ai/ha, scale 0 (no effect) to 100 (complete control)
# [11] = Preemergence, 500 g ai/ha, scale 0 (no effect) to 100 (complete control)
# [12] = postemergence, 125 g ai/ha, scale 0 to 100
# [13] = postemergence, 62 g ai/ha, scale 0 to 100
# [14] = Preemergence, 2000 g ai/ha, visual rating, 0 to 100 scale (0 no effect, 100 complete control)
# [15] = preemergence, 500 g ai/ha, visual injury, 0 to 100 scale (0 no effect, 100 complete control)
# [16] = 500 g ai/ha, scale 0 to 100 (0 no effect, 100 complete control), visual, 12 to 14 days
Compound,"Plant response rating, Foxtail, Giant (giant foxtail; [2])","Plant response rating (0 = no effect, 100 = complete control), Morningglory (morningglory; 62 g ai/ha)","Plant response rating, Morningglory (morningglory; [5])",Morningglory plant response rating (morningglory; 500 g ai/ha),"Plant response rating (0 = no effect, 100 = complete control), Ragweed (common ragweed; 62 g ai/ha)","Plant response rating, Ragweed (common ragweed; [5])",Ragweed plant response rating (common ragweed; 500 g ai/ha),"Foxtail, Giant plant response rating (giant foxtail; [1])","Plant response rating, Morningglory (morningglory; 62 g ai/ha, scale 0 to 100)","Plant response rating, Ragweed (common ragweed; 62 g ai/ha, scale 0 to 100)","Foxtail, Giant plant response rating (giant foxtail; [14])","Foxtail, Giant plant response rating (giant foxtail; [15])","Plant response rating, Morningglory (morningglory; 250 g ai/ha, scale 0-100)","Plant response rating, Ragweed (common ragweed; 250 g ai/ha, scale 0-100)",also measured
CCn1nc(C(C)(C)C)cc1C(=O)Nc1cccc2c1CCN(C1CC1)C2=O [Compound 64],55,0,0,0,0,0,20,,,,,,,,"Plant response rating, Foxtail, Giant (giant foxtail; [1]): 30; Foxtail, Giant plant response rating (giant foxtail; [3]): 40; Foxtail, Giant plant response rating (giant foxtail; [4]): 90"
CCCN1CCc2c(NC(=O)c3cc(C(C)(C)C)nn3CC)cccc2C1=O [Compound 65],55,0,0,10,0,0,60,,,,,,,,"Plant response rating, Foxtail, Giant (giant foxtail; [1]): 30; Foxtail, Giant plant response rating (giant foxtail; [3]): 40; Foxtail, Giant plant response rating (giant foxtail; [4]): 80"
CCOC(=O)c1cccc(NC(=O)c2cc(C(C)(C)C)nn2CC)c1C [Compound 88],60,0,0,20,0,0,20,20,,,,,,,"Foxtail, Giant plant response rating (giant foxtail; [3]): 55; Foxtail, Giant plant response rating (giant foxtail; [4]): 90"
CCn1nc(C(C)(C)C)cc1C(=O)Nc1cccc(SC)c1 [Compound 131],,0,0,,40,50,,,,,,,,,"Foxtail, Giant plant response rating (giant foxtail; Postemergence, 250 g ai/ha, 0 to 100 scale, 0 no effect, 100 complete control): 10; Plant response rating, Foxtail, Giant (giant foxtail; Postemergence, 1000 g ai/ha, 0 to 100 scale, 0 no effect, 100 complete control): 15; Foxtail, Giant plant response rating (giant foxtail; Preemergence, 1000 g ai/ha, visual rating, 0 to 100 scale (0 no effect, 100 complete control)): 75; Foxtail, Giant plant response rating (giant foxtail; preemergence, 250 g ai/ha, visual injury, 0 to 100 scale (0 no effect, 100 complete control)): 10"
"CCn1nc(C(C)(C)C)cc1C(=O)Nc1cccc(C(N)=O)n1 [Compound 162, 6-[[[3-(1,1-dimethylethyl)-1-ethyl-1H-pyrazol-5-yl]carbonyl]amino]-2-pyridinecarboxamide]",,,100,100,,95,100,,45,95,,,,,"Plant response rating, Dallisgrass (dallisgrass; [6]): 85; Plant response rating, Dallisgrass (dallisgrass; [7]): 70; Plant response rating, Dallisgrass (dallisgrass; [8]): 70; Plant response rating, Dallisgrass (dallisgrass; [9]): 95; Plant response rating, Dallisgrass (dallisgrass; [10]): 95; Plant response rating, Dallisgrass (dallisgrass; [11]): 95; Plant response rating, Dallisgrass (dallisgrass; [12]): 40; Plant response rating, Dallisgrass (dallisgrass; [13]): 20; Plant response rating, Barnyardgrass (barnyardgrass; [6]): 95; Plant response rating, Barnyardgrass (barnyardgrass; [7]): 90; Plant response rating, Barnyardgrass (barnyardgrass; [8]): 60; Plant response rating, Barnyardgrass (barnyardgrass; [9]): 100; Plant response rating, Barnyardgrass (barnyardgrass; [10]): 100; Plant response rating, Barnyardgrass (barnyardgrass; [11]): 100; Plant response rating, Barnyardgrass (barnyardgrass; [12]): 80; Plant response rating, Barnyardgrass (barnyardgrass; [13]): 60"
CC(=NO)c1cccc(NC(=O)c2sc(C(C)(C)C)nc2C)c1 [Compound 195],0,,0,0,,40,90,5,0,20,45,30,0,80,
CCNC(=O)c1cccc(NC(=O)c2sc(C(C)(C)C)nc2C)c1 [Compound 198],65,,70,85,,80,100,30,10,50,95,90,85,95,
C=CCNC(=O)c1cccc(NC(=O)c2sc(C(C)(C)C)nc2CC)c1 [Compound 207],50,,0,0,,50,100,10,0,40,90,75,0,60,
CCNC(=O)c1cccc(NC(=O)c2sc(C(C)(C)C)nc2CC)c1 [Compound 210],75,,0,,,0,,40,0,0,100,100,5,90,"Plant response rating, Morningglory (morningglory; [16]): 10; Plant response rating, Ragweed (common ragweed; [16]): 90"
CCNC(=O)c1cccc(NC(=O)c2sc(C(C)(C)C)nc2CC)n1 [Compound 213],25,,0,,,0,,20,0,0,85,60,0,0,"Plant response rating, Morningglory (morningglory; [16]): 0; Plant response rating, Ragweed (common ragweed; [16]): 0"
CCc1nn(C(C)(C)C)cc1C(=O)Nc1cc(C(=O)N(CC)CC)ccc1F [Compound 223],10,,0,,,,,10,0,,90,75,5,100,"Plant response rating, Morningglory (morningglory; [16]): 100; Plant response rating, Ragweed (common ragweed; [16]): 100"
